Results from patent publication US9486507B2, “Pro-coagulant compounds and methods of use thereof” (priority 2011, dated 2016).
Square brackets hold non-standard residues; d marks the D form. Ends that are not written are not given here.

Columns and labels:
[1] = molecular target: FIXa (Homo sapiens, UniProt P00740); experiment: FXa generation assay with human FIXa; assay type: biochemical; design: purchased Haematologic Technologies
Text: FXa generation was utilized to assess the capability of the compounds of the present disclosure to enhance the catalytic activities of FIXa and/or FVIIa.
To measure the catalytic activity of FIXa, FIXa was mixed with FX and phospholipids in the presence of calcium chloride. Under these conditions FIXa cleaves the zymogen FX into the active form FXa.
The generation of FXa is monitored by the change in absorbance of the reaction at 405 nm due to the presence of a cleavable FXa chromogenic substrate (S-2765; Z-D-Arg-Gly-Arg-pNA; cleavage of p-nitroaniline). […] The kit contains all the FXa generation components, however, FIXa and FX obtained from this kit are from a bovine origin and were replaced with purified human FIXa or human FVIIa and human FX (Haematologic Technologies).
The assay was also modified to enhance the screening throughput. Instead of the sequential addition, all the assay components were mixed and added simultaneously to the purified compound to be assayed. A 125 μl reaction mix of the assay components was prepared in the buffer supplied by the manufacturer (50 mM Tris 7.3, and 1% BSA). […] The reaction mix (125 ul) was then added to 25 ul of compound diluted in water in a Costar-3651 flat bottom 96-well plate. […] The absorbance was monitored over a period of 1 hour at 405 nm using a plate reader (Synergy 2, Biotek).
The 405 nm absorbance data were then analyzed to obtain the slope of the first derivative which reflects the rate of change in absorbance. The first derivative slope data for each compound concentration were plotted against the compound concentration and fitted to a four-parameter equation to obtain the EC50 and Vmax values for each compound tested.

[2] = test system: FVIII deficient human plasma; experiment: Thrombin generation assay (TGA) in FVIII-deficient plasma; assay type: biochemical; details: for TGA activity in the presence of FVIII: 0.1 U/mL FVIII, compound 7 100-6.3 uM, compounds 8 and 9 50-3.1 uM
[3] = FXa generation assay using human FIXa, class symbols
[4] = FXa generation assay using human FIXa, numeric bounds

Sequence of FIXa (P00740 47-191 limits assumed): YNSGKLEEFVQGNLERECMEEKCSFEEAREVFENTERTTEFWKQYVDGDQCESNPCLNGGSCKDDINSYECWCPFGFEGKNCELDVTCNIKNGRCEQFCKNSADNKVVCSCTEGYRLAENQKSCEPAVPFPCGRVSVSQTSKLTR
Sequence of FIXa (P00740 227-461 limits assumed): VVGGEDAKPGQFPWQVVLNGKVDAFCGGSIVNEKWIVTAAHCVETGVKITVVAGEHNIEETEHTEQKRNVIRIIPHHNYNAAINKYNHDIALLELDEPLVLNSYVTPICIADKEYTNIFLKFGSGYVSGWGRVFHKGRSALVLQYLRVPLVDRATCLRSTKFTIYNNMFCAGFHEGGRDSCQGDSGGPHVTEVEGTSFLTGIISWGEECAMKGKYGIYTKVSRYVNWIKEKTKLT

Substance | Vmax [1, 3] | other results
APPGGKRMCLVSGCQLFPWSAS | (+) ((+)<1) | 
AQLRRKLTCLASYCWLFGFFSP | (++) ((++) 1-2) | 
AQTRVARCCQLF | (+) ((+)<1) | 
AVAINKVPCVASYCQLFESKIH | (+) ((+)<1) | 
AWPYHKPTCLASQCWQFLAQGS | (+) ((+)<1) | 
DAGPNKLRCLASYCQLFGGGHA | (+) ((+)<1) | 
DAKVAKLRCLGSQCWLLQYAPG | (++) ((++) 1-2) | 
DSRSAKRKCLASYCWLFGIGQA | (+) ((+)<1) | 
EGRRDKLTCLASYCWLVGHGQH |  | Vmax [1, 4]: >0.3
EQTCLASYCWLF | (+) ((+)<1) | 
ERYRLDMTCMASQCWQFPPAAG | (++) ((++) 1-2) | 
FGQPSRLTCLASYCWLFGNLVT | (++) ((++) 1-2) | 
FPIQHKLTCLSSDCWLFPSHSY | (+) ((+)<1) | 
GAQLDKETCLASYCQLFSTVRR | (+) ((+)<1) | 
GASGRRRTCVASYCLLFQSGLP |  | Vmax [1, 4]: >0.1
GASSDKLTCRTRHCSMFQPLSV | (+) ((+)<1) | 
GCSSDKLTARTRHCSMFQPLSV | (+) ((+)<1) | 
GDSGRKLSCLGSYCWLSVQFMA | (++) ((++) 1-2) | 
GEGGGKLSCVAIQCGLFKGLGR | (+) ((+)<1) | 
GFGSRKLTSLASYGWLIQDRLP | (+) ((+)<1) | 
GGALQQLTCPASYCWLFPMEHS | (+) ((+)<1) | 
GIQGSEVACRASFCRLFEQGHV | (+) ((+)<1) | 
GSCRDQLTCLSSDRWQFFRRVS | (+) ((+)<1) | 
GVEDRQLTCLASSCWVFSRHSV | (++) ((++) 1-2) | 
GWKPFLWDPRVLLSSGWYGRG [Compound 7, reference compound] |  | TGA activity in the presence of FVIII [2]: competes with FVIII

Substance | Vmax [1, 3] | other results
GWKPFLWDPRVLLSSGWYGRGGGGGWKPFLWDPRVLLSSGWYGRG [Compound 9, reference compound] |  | TGA activity in the presence of FVIII [2]: competes with FVIII
HDSLDQLTCLASVCQLASMGAR | (+) ((+)<1) | 
HGLADRLTCLSSDCWLQPFGTS | (+) ((+)<1) | 
HLGSPKLTCGASQCWLLNHEVS | (+) ((+)<1) | 
HMQWGKLPCLASYCWLFWYGIG | (+++) ((+++)>2) | 
HQQRRKLTCLAGYCWLFVLGPS | (+++) ((+++)>2) | 
HYARVQLRCLDGYCWLLTKSRM |  | Vmax [1, 4]: >2.5
KEGFAQLPCLVCQGGLFSPRAI | (+) ((+)<1) | 
KGAYQKLTCLASYCLLFLLTAQ | (++) ((++) 1-2) | 
KGRCLTSHCWLF | (+) ((+)<1) | 
KKTCLASYCWLF | (++) ((++) 1-2) | 
KKTCVASFCQMI |  | Vmax [1, 4]: >4
KLKCLASYCWLF | (++++) ((++++)>3) | EC50 [1, 3]: 500 to 1000 nM
KLKCLSSECQLL | (+) ((+)<1) | 
KLSCQAGQCWVF | (+++) ((+++)>2) | 
KLTCKASYCWLF | (++++) ((++++)>3) | 
KLTCLASKCWLF | (+) ((+)<1) | 
KLTCLASQCWLF | (+++) ((+++)>2) | 
KLTCLASYCFLF | (++++) ((++++)>3) | EC50 [1, 3]: 500 to 1000 nM
KLTCLASYCLLF | (+++) ((+++)>2) | EC50 [1, 3]: 500 to 1000 nM
KLTCLASYCQLF | (++++) ((++++)>3) | EC50 [1, 3]: 500 to 1000 nM
KLTCLASYCQLV | (+++) ((+++)>2) | 
KLTCLASYCWIF | (+++) ((+++)>2) | EC50 [1, 3]: 500 to 1000 nM
KLTCLASYCWLK | (+) ((+)<1) | 
KLTCLASYCWYF | (+++) ((+++)>2) | 

Substance | Vmax [1, 3] | other results
KLTCLATYCWLF | (++) ((++) 1-2) | 
KLTCLGSYCWLF | (+++) ((+++)>2) | 
KLTCLKSYCWLF | (++) ((++) 1-2) | 
KLTCLSSYCWLF | (+++) ((+++)>2) | 
KLTCLVSYCWLF | (+++) ((+++)>2) | EC50 [1, 3]: 500 to 1000 nM
KLTCQASYCWLF | (++) ((++) 1-2) | 
KLTCRASYCQLF | (+++) ((+++)>2) | 
KRYVYRQMCLVSACWLLQLGYA | (++) ((++) 1-2) | 
LLHAQKLSCLASYCWVFDAEWD | (+) ((+)<1) | 
LLQIPNLTCLGSYCWLDNGVYA | (+) ((+)<1) | 
LQELTKLTCLARSGWLVCNPGY | (+) ((+)<1) | 
LRQRLAKTCVASYCWLFSLVAS |  | Vmax [1, 4]: >1.5
LRTQPKVTGLASCSGLVNCSRD | (+) ((+)<1) | 
LTWREKLACLASYCWLFLWGAP | (++) ((++) 1-2) | 
MAGMLKLTCFASYCGLFPLVSS | (++) ((++) 1-2) | 
MEGTRQPTCLASYCSPFQYVAP | (+) ((+)<1) | 
MLTCIASYCQLG | (+) ((+)<1) | 
NGGMQKPACLASQCWLFANPLP | (++) ((++) 1-2) | 
NLTGRASYGWLP | (+) ((+)<1) | 
NPTCQASYCQLF | (+) ((+)<1) | 
PRIrTVGPGSrSASGKLTCLASYCWLFWTGIA (PRI[dR]TVGPGS[dR]SASGKLTCLASYCWLFWTGIA; not fully specified; printed as PRIrTVGPGSrSASGKLTCLASYCWLFWTGIA; cysteine pairing not given here) |  | Thrombin Above Baseline (nM) ([2]; HRF FVIII-deficient plasma (1), 2.5 μM): ++ (11-20 nM (1) or 30-59 nM (2) (++)); Thrombin Above Baseline (nM) ([2]; HRF FVIII-deficient plasma (1), 2.5 μM, listed as PRIRTVGPGSRSASGKLTCLASYCWLFWTGIA): + (1-10 nM (1) or 1-29 nM (2) (+)); Thrombin Above Baseline (nM) ([2]; HRF FVIII-deficient plasma (1), 5 μM): +++ (21-30 nM (1) or 60-90 nM (2) (+++)); Thrombin Above Baseline (nM) ([2]; HRF FVIII-deficient plasma (1), 5 μM, listed as PRIRTVGPGSRSASGKLTCLASYCWLFWTGIA): ++ (11-20 nM (1) or 30-59 nM (2) (++)); Thrombin Above Baseline (nM) ([2]; HRF FVIII-deficient plasma (1), 10 μM): +++ (21-30 nM (1) or 60-90 nM (2) (+++)); Thrombin Above Baseline (nM) ([2]; HRF FVIII-deficient plasma (1), 20 μM): +++ (21-30 nM (1) or 60-90 nM (2) (+++)); Thrombin Above Baseline (nM) ([2]; Precision Biologics FVIII-deficient plasma (2), first Baseline (2) series, 2.5 μM): ++ (11-20 nM (1) or 30-59 nM (2) (++)); Thrombin Above Baseline (nM) ([2]; Precision Biologics FVIII-deficient plasma (2), first Baseline (2) series, 5 μM): +++ (21-30 nM (1) or 60-90 nM (2) (+++)); Thrombin Above Baseline (nM) ([2]; Precision Biologics FVIII-deficient plasma (2), first Baseline (2) series, 10 μM): +++ (21-30 nM (1) or 60-90 nM (2) (+++))
PRIrTVGPGSrSASGKSTCLASYCWLFWTGIA [Compound 24] |  | Vmax ([1]; FXa generation assay, 10 nM hFIXa, 100 nM hFX, class symbols): (++++) ((++++)>3)
PWRRFWAWNPRSLALSTWFGRGCD [Compound 8, reference compound] |  | TGA activity in the presence of FVIII [2]: competes with FVIII
QAKMLKLTCLASYCWLFWVTRS | (+++) ((+++)>2) | 
QDGDGKLTCRASYCRRFLVGVH | (+) ((+)<1) | 

Substance | Vmax [1, 3] | other results
QDGVEKLTCLASYCWRFGDHGA | (+) ((+)<1) | 
QEQPAKLTCRGSYCWLFKRGDQ | (+) ((+)<1) | 
QGQARKLACLASYCWLFPSSAG | (+) ((+)<1) | 
QLPCLASYCGLF | (+) ((+)<1) | 
QLTCLASECGLS | (+) ((+)<1) | 
QLTCLASYCGGV | (+) ((+)<1) | 
QLTCLASYCWLF | (+) ((+)<1) | 
QQRQIKMSCLASYCWLFGSIPW | (++) ((++) 1-2) | EC50 [1, 3]: 500 to 1000 nM
QQTCQASQCQLF | (+) ((+)<1) | 
RCAQSRLPWLVSYCWLFSPYGM |  | Vmax [1, 4]: >1.5
RFQTTQLTCLGSASCLFNLSVR | (+) ((+)<1) | 
RGRSAKLRCLASYCWLFFGVIL | (+++) ((+++)>2) | 
RGRSAKLRCLASYCWLFFTVIL | (+++) ((+++)>2) | 
RGRSAKLTCLASYCWLFFGVIL | (+++) ((+++)>2) | 
RGSVHQPTCLGGYCGRLHSSWV | (+) ((+)<1) | 
RHSNHNLTCQASYCWLLPAGLQ | (+) ((+)<1) | 
RLTCLASYCWLF | (+++) ((+++)>2) | 
RPGGGKVTCQASYCWPFLARAG | (+) ((+)<1) | 
RQLWNKLTCLASYCALIGLSGT | (++) ((++) 1-2) | 
RRCPGKLQALASYCWLFWTGIA | (+++) ((+++)>2) | 
RSFTSELTCLASSCRRFHHVPP | (+) ((+)<1) | 
RSQGRKLTCLASYCWLFLVVHR | (++) ((++) 1-2) | 
RSTVSQMRCLASYCWLFPALVS | (++) ((++) 1-2) | 
RYQRARLTCLASYCGLLFSMSA |  | Vmax [1, 4]: >0.5
SCVKHELKCLSSDSRLFSAVQR | (+) ((+)<1) | 

Substance | Vmax [1, 3] | other results
SGFGMKLTCLASYCGLFQGEIG | (+) ((+)<1) | 
SGGSGKLTCLASYCWPFGSQVR | (+) ((+)<1) | 
SGRGGKLTCQASFCQLFGNGLS | (++) ((++) 1-2) | 
SISGQQLTCRASHCWLNLPWHS | (+) ((+)<1) | 
SKWEHQRGCLANNCWLFTLAPG | (+) ((+)<1) | 
SLADTQLTWLARQYWLSVSEGS | (+) ((+)<1) | 
SRQSDKPTCLAISCSLLTSNVR | (+) ((+)<1) | 
SYGRTKLTCLASSCWLFGQVHG | (+) ((+)<1) | 
TLDSKNLQCLGSSCWLFSSGLS | (+) ((+)<1) | 
TLLYQNRTCLASYCWLFDKRSV | (+) ((+)<1) | 
TLTCRASYCQLF | (+) ((+)<1) | 
VAHYGKVTCLASYCQPLPSVGA | (+) ((+)<1) | 
VARASKVECLASYCQLFVGGEV | (+) ((+)<1) | 
VDKGHQLRCQAGYCWLLGYNRE | (+) ((+)<1) | 
VGEHRKISCVASNCQLLRSGLA | (+) ((+)<1) | 
VQRSTQLTCLYGGCRLFGWNYH | (+) ((+)<1) | 
VSGTGKLTCLASYCWLFQLGSF | (++) ((++) 1-2) | 
VSGTGRLTCVASYCWMFQLGIF | (++) ((++) 1-2) | 
VSGTGRLTCVASYCWMFQLGSF | (++) ((++) 1-2) | 
WHERQQLTCLASYCGLFVGQVA | (+) ((+)<1) | 
WVPQWKVTCLASCSRLFHGFDA |  | Vmax [1, 4]: >1.5
YARDSTLTCQARTCQLVDYLGP | (+) ((+)<1) | 
